The record followed here is patent publication US20070173499A1 (priority 2004, published 2007).

Like-named read-outs stand apart in the source and are kept apart here.

One experiment addresses T1, 5-HT2A receptor (Homo sapiens, UniProt P28223).
T1 construct: expressed in transfected cells; host or cells: CHO-K1 (or COS-7); alternatively human cortex tissue
The experiment can be described thus: radioligand binding assay for 5-HT2A receptor ([3H]-ketanserin). How it is done:
(§1) The effect of the compounds of the present invention on the neurochemical steady state was determined by in vitro investigations such as a radionuclide-marked radioligand binding assay for 5-HT2A (Bonhaus D. W. Br. J. Pharmacol. 1995, 115:622; Saucier C. J. Neurochem. 1997, 68:1998) and 5-HT2C receptors (Wolf W. A. J. Neurochem. 1997, 69:1449), in vitro binding assay for σ1 receptor (Thomson W. and Donn R. Arthritis Res. 2002, 4: 302-306) and by in vivo investigations in a tail suspension test (Vogel H. G. and Vogel W. H. Drug Discovery and Evaluation Pharmacological Assays, Springer 1997, 304), in amphethamine-induced hyperlocomotion in mice (Millan M. J. et al, 1998 J Pharmacol. Exp. Ther. 287: 167-186), in a forced swim test in mice (Porsolt R. D. et al. Arch. Int. Pharmacodyn. 1977, 229:327-336), in meta-chlorophenyl piperazine (m-CPP) test on rats (Drug Dev. Res. 1989, 18:119-144), and in apomorphine, tryptamine and norepinephrine (ATN) test in rats (Arch. Int. Pharmacodyn. 1977, 227:238-253).
(§2) A small concentration of a radioligand having a great affinity for binding to a receptor was incubated with a tissue sample enriched with a certain receptor (1-5 mg of tissue) in a buffered medium (0.2-5 mL). Recombinant human HT2A and HT2C receptors were expressed in CHO-K1 or COS-7 cells and were also used for competitive binding. During incubation the radioligand bound to the receptor. When a binding balance was achieved, the receptors to which the radioligand was bound were separated from those to which said ligand was not bound, and the radioactivity of the receptor/radioligand complex was measured. The interaction of the tested compounds with receptors was tested in competitive binding experiments. Various concentrations of tested compounds were added to the incubation mixture containing a prepared tissue enriched with corresponding receptors and the radioligand. The radioligand binding was inhibited by the test compounds proportionally to the affinity of a certain compound for the receptor and to the concentration of the compound.
(§3) The radioligand used for the determination of binding to 5-HT2A receptor was [^3H]-ketanserin and the tissue used was human cortex or recombinant 5-HT2A receptor expressed in CHO-K1 cells. The radioligand used for the determination of binding to 5-HT2C receptor was [^3H]-mesulergine and the tissue used was choroid plexus or recombinant 5-HT2C receptor expressed in CHO-K1 cells.

A further experiment concerns the target T2, 5-HT2C receptor (Homo sapiens, UniProt P28335).
T2 construct: expressed in transfected cells; host or cells: CHO-K1 (or COS-7); alternatively choroid plexus tissue
T2 sequence (P28335 33-458): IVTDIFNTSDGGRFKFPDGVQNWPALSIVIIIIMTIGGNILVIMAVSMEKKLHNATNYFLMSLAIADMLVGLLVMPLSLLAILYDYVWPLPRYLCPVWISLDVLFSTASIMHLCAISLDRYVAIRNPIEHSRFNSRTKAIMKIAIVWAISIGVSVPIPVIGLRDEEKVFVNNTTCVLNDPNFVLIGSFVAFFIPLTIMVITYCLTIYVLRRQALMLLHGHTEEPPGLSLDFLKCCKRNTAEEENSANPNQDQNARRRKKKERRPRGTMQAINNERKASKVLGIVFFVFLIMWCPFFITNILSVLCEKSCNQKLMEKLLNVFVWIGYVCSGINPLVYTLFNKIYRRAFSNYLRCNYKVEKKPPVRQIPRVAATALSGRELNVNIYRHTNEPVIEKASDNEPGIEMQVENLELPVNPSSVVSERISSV
In words: radioligand binding assay for 5-HT2C receptor ([3H]-mesulergine). The procedure:
as §1, §2, §3

For the next experiment, the target named is T3, σ1 receptor (Homo sapiens, UniProt Q99720).
T3 construct: endogenous in cells; host or cells: Jurkat cells (membrane fraction)
T3 sequence (Q99720 whole entry): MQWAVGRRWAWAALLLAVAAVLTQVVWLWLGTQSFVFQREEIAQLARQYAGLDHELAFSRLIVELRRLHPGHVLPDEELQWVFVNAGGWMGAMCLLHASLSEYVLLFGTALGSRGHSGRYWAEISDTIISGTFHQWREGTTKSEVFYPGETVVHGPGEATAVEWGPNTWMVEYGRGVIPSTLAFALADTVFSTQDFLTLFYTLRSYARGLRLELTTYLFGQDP
In words: in vitro binding assay for σ1 receptor, Jurkat cell membranes, [3H]haloperidol. Conditions: [3H]haloperidol 10 nM. How it is done:
as §1, with “227:238-253). […]” for “227:238-253).”
Binding of different radiolabeled ligans to Jurkat cell membranes was measured as described previously (Ramamoorthy et al., 1995). […]
Membranes were incubated with ligands in phosphate buffer for 3 hours at room temperature. After filter had been washed, radioactivity associated with the filter was determined by liquid scintillation spectrometry.

T1 sequence (P28223 whole entry): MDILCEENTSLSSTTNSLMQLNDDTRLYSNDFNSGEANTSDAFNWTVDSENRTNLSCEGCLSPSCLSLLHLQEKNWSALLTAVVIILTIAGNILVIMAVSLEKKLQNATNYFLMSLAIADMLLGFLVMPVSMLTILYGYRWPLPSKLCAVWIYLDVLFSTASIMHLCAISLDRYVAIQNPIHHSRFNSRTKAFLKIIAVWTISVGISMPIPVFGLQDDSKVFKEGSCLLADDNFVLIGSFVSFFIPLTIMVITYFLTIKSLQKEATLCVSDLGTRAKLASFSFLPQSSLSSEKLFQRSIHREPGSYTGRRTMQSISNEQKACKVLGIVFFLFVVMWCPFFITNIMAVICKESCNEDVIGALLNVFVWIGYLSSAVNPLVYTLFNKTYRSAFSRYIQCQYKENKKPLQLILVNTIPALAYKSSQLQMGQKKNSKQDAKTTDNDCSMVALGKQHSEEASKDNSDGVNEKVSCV

As usually defined, the IC50 is the concentration that gives 50% inhibition. In general, Ki refers to a dissociation constant, usually derived from enzyme kinetics or from competition with a known ligand. With `CN(C)CCCOCc1cc2c(s1)-c1cc3ccccc3cc1Sc1ccccc1-2`, on 5-HT2A receptor, the 50% inhibitory concentration (IC50) was less than 200 nM and the Ki is less than 100 nM. Further, at 5-HT2C receptor, the IC50 is less than 200 nM and the Ki was less than 100 nM.

Take `CC(CN(C)C)OCc1cc2c(s1)-c1cc3c(cc1Oc1ccccc1-2)CCCC3` (stereo not shown) [dimethyl-[2-(10,11,12,13-tetrahydro-8-oxa-1-thia-benzo[e]naphtho[3,2-h]azulen-2-ylmethoxy)-propyl]-amine]: the IC50 at σ1 receptor (read-out: binding affinity to σ1 receptor expressed as IC50) was less than 200 nM. Also, at σ1 receptor (read-out: binding affinity to σ1 receptor, Ki), the Ki was less than 100 nM.

With `CN(C)CCCOCc1cc2c(s1)-c1ccc3ccccc3c1Sc1ccccc1-2` [dimethyl-[3-(3,10-dithia-benzo[e]naphtho[1,2-h]azulen-2-ylmethoxy)-propyl]-amine], the IC50 is less than 200 nM at 5-HT2A receptor ([3H]-ketanserin, human cortex or recombinant 5-HT2A receptor in CHO-K1 cells, read-out: binding affinity to 5-HT2A serotonin receptor expressed as IC50) and less than 200 nM on 5-HT2C receptor ([3H]-mesulergine, choroid plexus or recombinant 5-HT2C receptor in CHO-K1 cells, read-out: binding affinity to 5-HT2C serotonin receptor expressed as IC50). The inhibitory constant (Ki) is less than 100 nM at 5-HT2A receptor ([3H]-ketanserin, human cortex or recombinant 5-HT2A receptor in CHO-K1 cells, read-out: binding affinity to 5-HT2A serotonin receptor, Ki) and less than 100 nM at 5-HT2C receptor ([3H]-mesulergine, choroid plexus or recombinant 5-HT2C receptor in CHO-K1 cells, read-out: binding affinity to 5-HT2C serotonin receptor, Ki).
